Consider 20 compounds from patent US20240199558A1, “2,4,6-TRISUBSTITUTED 1,3,5-TRIAZINES AS MODULATORS OF CX3CR1” (ASTRAZENECA AB, priority 2022, published 2024).

In assay [1] the target is T1, CX3CR1 (Homo sapiens (Human), UniProt P49238). Description: hCX3CR1 [125I]-CX3CL1 displacement binding (SPA). Conditions: CHO-hCX3CR1 membranes, [125I]-CX3CL1, SPA beads. Here is the method:
hCX3CR1 [^125I]-CX3CL1 Displacement Binding (SPA)
CHO-hCX3CR1 membranes (3 μg per well) together with […] [^125I]-CX3CL1 (Perkin Elmer) and different concentrations of competitor compound were incubated together with 400 μg/well WGA coated PVT SPA beads (Perkin Elmer) in 50 mM HEPES (pH 7.4), 10 mM MgCl2, 1 mM EDTA and 0.1% Gelatin in a Greiner polystyrene flat-bottom 384-well plate. The plate was incubated for 20 h at room temperature before the radioactivity was measured using a MicroBeta Trilux reader (PerkinElmer). The DMSO concentration was held constant at 1%.

In assay [2] the target is T1, CX3CR1. Description: hCX3CR1 [3H]-AZD8797 competitive binding assay (filter). Conditions: CHO-hCX3CR1 membranes, 2 nM [3H]-AZD8797. A digest of the protocol: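 Filtration radioligand displacement assay: competitor titrations compete with 2 nM [3H]-AZD8797 for membranes from CHO cells expressing hCX3CR1 (9 μg/well). Incubation was 2 h at room temperature in HEPES pH 7.4 with MgCl2, CaCl2, 0.5% BSA and 1% DMSO. Filters were washed with ice-cold high-salt (500 mM NaCl) buffer, and retained radioactivity was scintillation-counted.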

Assay [3] addresses T1, CX3CR1. Description: CX3CR1-dependent cell adhesion to recombinant CX3CL1 in human whole blood under flow. The format is cell-based. Conditions: recombinant full-length CX3CL1. The method, then:
Adhesion of cells to recombinant full-length human CX3CL1 was monitored under physiological flow using a Cellix VenaFlux microfluidics platform with connected fluorescent microscope and camera, and using Vena8 Fluoro+ Biochips (Cellix) pre-coated with anti-His monoclonal antibody (25 μg/mL; R&D Systems) and His-tagged full-length CX3CL1 (15 μg/mL; R&D Systems).
CX3CR1-Dependent Cell Adhesion to Recombinant CX3CL1 in Human Whole Blood Under Flow
Human whole blood from healthy volunteers was collected using heparin as anti-coagulant. […] Compound stocks or DMSO vehicle were added to 0.5 or 1.0 ml aliquots of blood such that the final concentration of DMSO was 0.1%, corresponding to a 1000-fold dilution of compound stock. Blood was pre-incubated with compound at room temperature for 60 minutes with gentle shaking. DiOC6 (Invitrogen, 5 μM) or Hoechst 33342 (Invitrogen, 300 μM) dye was subsequently added to fluorescently label cells and enable their detection during the flow adhesion assay. To monitor adhesion, blood was allowed to flow through the channels of a Vena8 Fluoro+ biochip at 2.25 dynes per cm^2 for 3-6 minutes prior to capturing images for quantification. Fluorescent cells adhering to the channels were counted and the mean and/or total count across five to six images in each channel were used for calculating concentration-response curves.

The structures appear in SMILES notation.

T1 sequence (P49238 whole entry): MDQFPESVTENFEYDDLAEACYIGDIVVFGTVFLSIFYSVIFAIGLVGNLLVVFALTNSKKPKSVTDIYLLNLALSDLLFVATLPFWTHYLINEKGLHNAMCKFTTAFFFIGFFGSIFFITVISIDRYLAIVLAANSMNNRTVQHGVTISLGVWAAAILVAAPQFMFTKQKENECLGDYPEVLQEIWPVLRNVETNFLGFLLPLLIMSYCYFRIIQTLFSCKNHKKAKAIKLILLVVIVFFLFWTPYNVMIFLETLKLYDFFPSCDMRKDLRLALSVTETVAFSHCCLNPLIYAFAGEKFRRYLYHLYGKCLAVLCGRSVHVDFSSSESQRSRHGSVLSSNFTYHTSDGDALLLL

On to `CC(C)C[C@H](CO)Nc1nc(C[C@H](C)c2cccc(Cl)c2F)nc(NS(C)(=O)=O)n1` (single isomer, unassigned) [Example 3, N-(4-((S*)-2-(3-Chloro-2-fluorophenyl)propyl)-6-(((R)-1-hydroxy-4-methylpentan-2-yl)amino)-1,3,5-triazin-2-yl)methanesulfonamide], for which the IC50 (in general, the point on the concentration scale where inhibition reaches its midpoint) on CX3CR1 [1] was found to be 448 nM; on CX3CR1 [2], 124 nM.

As for `CC(C)C[C@H](CO)Nc1nc(C[C@H](C)c2ccc(F)cc2F)nc(NS(C)(=O)=O)n1` (single isomer, unassigned) [Example 5, N-(4-((S*)-2-(2,4-Difluorophenyl)propyl)-6-(((R)-1-hydroxy-4-methylpentan-2-yl)amino)-1,3,5-triazin-2-yl)methanesulfonamide], the 50% inhibitory concentration (IC50) at CX3CR1 [1] worked out at 895 nM; on CX3CR1 [2] it was 239 nM.

As to `COc1ncc([C@@H](C)Cc2nc(N[C@@H](CO)CC(C)C)nc(NS(C)(=O)=O)n2)cc1F` (single isomer, unassigned) [Example 8, N-(4-((S*)-2-(5-Fluoro-6-methoxypyridin-3-yl)propyl)-6-(((R)-1-hydroxy-4-methylpentan-2-yl)amino)-1,3,5-triazin-2-yl)methanesulfonamide], the values for the IC50 at CX3CR1 [1] and at CX3CR1 [2] were above 20000 nM and 1350 nM, respectively.

With `COc1ncc([C@H](C)Cc2nc(N[C@@H](CO)CC(C)C)nc(NS(C)(=O)=O)n2)cc1Cl` (single isomer, unassigned) [Example 9, N-(4-((R*)-2-(5-Chloro-6-methoxypyridin-3-yl)propyl)-6-(((R)-1-hydroxy-4-methylpentan-2-yl)amino)-1,3,5-triazin-2-yl)methanesulfonamide], the half-maximal inhibitory concentration (IC50) on CX3CR1 [1] was above 10000 nM; at CX3CR1 [2], 205 nM.

On to `COc1ncc([C@@H](C)Cc2nc(N[C@@H](CO)CC(C)C)nc(NS(C)(=O)=O)n2)cc1Cl` (single isomer, unassigned) [Example 10, N-(4-((S*)-2-(5-Chloro-6-methoxypyridin-3-yl)propyl)-6-(((R)-1-hydroxy-4-methylpentan-2-yl)amino)-1,3,5-triazin-2-yl)methanesulfonamide], for which the results for the IC50 on CX3CR1 [1] and on CX3CR1 [2] were above 20000 nM and 922 nM, respectively.

Regarding `CC(C)C[C@H](CO)Nc1nc(C[C@H](C)c2cnc(C3CC3)nc2)nc(NS(C)(=O)=O)n1` (single isomer, unassigned) [Example 11, N-(4-((S*)-2-(2-Cyclopropylpyrimidin-5-yl)propyl)-6-(((R)-1-hydroxy-4-methylpentan-2-yl)amino)-1,3,5-triazin-2-yl)methanesulfonamide], the IC50 at CX3CR1 [1] was above 30000 nM; on CX3CR1 [2], above 10000 nM.

Turning to `COc1cc(C)c([C@H](C)Cc2nc(N[C@@H](CO)CC(C)C)nc(NS(C)(=O)=O)n2)cn1` (single isomer, unassigned) [Example 13, N-(4-(((R)-1-Hydroxy-4-methylpentan-2-yl)amino)-6-((R*)-2-(6-methoxy-4-methylpyridin-3-yl)propyl)-1,3,5-triazin-2-yl)methanesulfonamide], the IC50 on CX3CR1 [1] amounted to 4250 nM; on CX3CR1 [2], 614 nM.

In the case of `COc1ncc([C@H](C)Cc2nc(N[C@@H](CO)CC(C)C)nc(NS(C)(=O)=O)n2)cc1C` (single isomer, unassigned) [Example 15, N-(4-(((R)-1-Hydroxy-4-methylpentan-2-yl)amino)-6-((R*)-2-(6-methoxy-5-methylpyridin-3-yl)propyl)-1,3,5-triazin-2-yl)methanesulfonamide], the IC50 at CX3CR1 [1] turned out to be 2990 nM; on CX3CR1 [2], 252 nM.

Take `COc1ncc([C@@H](C)Cc2nc(N[C@@H](CO)CC(C)C)nc(NS(C)(=O)=O)n2)cc1C` (single isomer, unassigned) [Example 16, N-(4-(((R)-1-Hydroxy-4-methylpentan-2-yl)amino)-6-((S*)-2-(6-methoxy-5-methylpyridin-3-yl)propyl)-1,3,5-triazin-2-yl)methanesulfonamide]: the IC50 at CX3CR1 [1] was above 30000 nM; on CX3CR1 [2], 4930 nM.

For `COc1ncccc1[C@H](C)Cc1nc(N[C@@H](CO)CC(C)C)nc(NS(C)(=O)=O)n1` (single isomer, unassigned) [Example 17, N-(4-(((R)-1-Hydroxy-4-methylpentan-2-yl)amino)-6-((R*)-2-(2-methoxypyridin-3-yl)propyl)-1,3,5-triazin-2-yl)methanesulfonamide], the IC50 came to 4370 nM at CX3CR1 [1] and 307 nM at CX3CR1 [2].

Turning to `COc1ncccc1[C@@H](C)Cc1nc(N[C@@H](CO)CC(C)C)nc(NS(C)(=O)=O)n1` (single isomer, unassigned) [Example 18, N-(4-(((R)-1-Hydroxy-4-methylpentan-2-yl)amino)-6-((S*)-2-(2-methoxypyridin-3-yl)propyl)-1,3,5-triazin-2-yl)methanesulfonamide], the results for the IC50 at CX3CR1 [1] and at CX3CR1 [2] were 16700 nM and 758 nM, respectively.

In the case of `CC(C)C[C@H](CO)Nc1nc(C[C@H](C)c2ccnc(Cl)c2)nc(NS(C)(=O)=O)n1` (single isomer, unassigned) [Example 25, N-(4-((S*)-2-(2-Chloropyridin-4-yl)propyl)-6-(((R)-1-hydroxy-4-methylpentan-2-yl)amino)-1,3,5-triazin-2-yl)methanesulfonamide], the IC50 at CX3CR1 [1] is 13500 nM; on CX3CR1 [2], 1350 nM.

`COc1ccc([C@H](C)Cc2nc(N[C@@H](CO)CC(C)C)nc(NS(C)(=O)=O)n2)c(OC)n1` (single isomer, unassigned) [Example 52, N-(4-((R*)-2-(2,6-Dimethoxypyridin-3-yl)propyl)-6-(((R)-1-hydroxy-4-methylpentan-2-yl)amino)-1,3,5-triazin-2-yl)methanesulfonamide]: the figures for the IC50 on CX3CR1 [1] and at CX3CR1 [2] were 5520 nM and 450 nM, respectively.

For the compound `COc1ccc([C@@H](C)Cc2nc(N[C@@H](CO)CC(C)C)nc(NS(C)(=O)=O)n2)c(OC)n1` (single isomer, unassigned) [Example 53, N-(4-((S*)-2-(2,6-Dimethoxypyridin-3-yl)propyl)-6-(((R)-1-hydroxy-4-methylpentan-2-yl)amino)-1,3,5-triazin-2-yl)methanesulfonamide], the IC50 was 11000 nM at CX3CR1 [1] and 528 nM at CX3CR1 [2].

Regarding `CC(C)C[C@H](CO)Nc1nc(C[C@H](C)c2ccc(F)cc2)nc(NS(C)(=O)=O)n1` (single isomer, unassigned) [Example 80, N-(4-((S*)-2-(4-Fluorophenyl)propyl)-6-(((R)-1-hydroxy-4-methylpentan-2-yl)amino)-1,3,5-triazin-2-yl)methanesulfonamide], the IC50 is 4900 nM on CX3CR1 [1] and 2210 nM at CX3CR1 [2].

Consider `CC(C)C[C@H](CO)Nc1nc(C[C@@H](C)c2ccc(Cl)cc2F)nc(NS(C)(=O)=O)n1` (single isomer, unassigned) [Example 84, N-(4-((R*)-2-(4-Chloro-2-fluorophenyl)propyl)-6-(((R)-1-hydroxy-4-methylpentan-2-yl)amino)-1,3,5-triazin-2-yl)methanesulfonamide], for which the IC50 at CX3CR1 [1] was determined as 348 nM; on CX3CR1 [2] it was 173 nM.

Regarding `CC(C)C[C@H](CO)Nc1nc(C[C@@H](C)c2ccc(F)c(F)c2F)nc(NS(C)(=O)=O)n1` (single isomer, unassigned) [Example 88, N-(4-(((R)-1-Hydroxy-4-methylpentan-2-yl)amino)-6-((R*)-2-(2,3,4-trifluorophenyl)propyl)-1,3,5-triazin-2-yl)methanesulfonamide], the IC50 turned out to be 115 nM on CX3CR1 [3] and 32 nM on CX3CR1 [2].

With `CC(C)C[C@H](CO)Nc1nc(CC(C)c2ccnc(Cl)c2)nc(NS(C)(=O)=O)n1` (stereo in doubt) [Example 26, N-(4-((R*)-2-(2-chloropyridin-4-yl)propyl)-6-(((R)-1-hydroxy-4-methylpentan-2-yl)amino)-1,3,5-triazin-2-yl)methanesulfonamide], the figures for the IC50 at CX3CR1 [1] and on CX3CR1 [2] were 682 nM and 44 nM, respectively.

Turning to `CCOc1cc(C(C)Cc2nc(N[C@@H](CO)CC(C)C)nc(NS(C)(=O)=O)n2)ccn1` (stereo partly drawn) [Example 67, N-(4-(2-(2-Ethoxypyridin-4-yl)propyl)-6-(((R)-1-hydroxy-4-methylpentan-2-yl)amino)-1,3,5-triazin-2-yl)methanesulfonamide], the figures for the IC50 on CX3CR1 [1] and at CX3CR1 [2] were 1830 nM and 359 nM, respectively.

As for `CCC(Cc1nc(N[C@@H](CO)CC(C)C)nc(NS(C)(=O)=O)n1)c1ccccc1F` (stereo partly drawn) [Example 89, N-(4-(2-(2-Fluorophenyl)butyl)-6-(((R)-1-hydroxy-4-methylpentan-2-yl)amino)-1,3,5-triazin-2-yl)methanesulfonamide], the IC50 on CX3CR1 [1] is 987 nM; at CX3CR1 [2], 250 nM.
